Assay results taken from patent publication US20170224664A1, “POWDER ORAL SUSPENSION FORMULATIONS OF ANTIBACTERIAL AGENTS” (Cempra Pharmaceuticals, Inc., priority 2014, published 2017).
In brackets after ≈: the same amount, converted by molar mass.

Columns and labels:
[1] = Solubility of SOL at different pH; format: physicochemical
Source text: It has been discovered herein that the solubility of the compounds described herein generally decreases with increasing pH. […] It has also been discovered herein that at certain pH levels, a stable aqueous suspension of the compounds may be prepared. That suspension may also be prepared from a reconstitutable powder for oral suspension (POS). However, it has also been discovered that at certain limiting pH levels, a threshold amount of the compounds described herein are in solution and therefore such an oral suspension may have a bitter taste that compromises the efficacy thereof, such as due to poor patient compliance.

[2] = Stability of SOL in the presence of excipients; format: physicochemical
Source text: It has unexpectedly been discovered that compounds described herein, such as SOL, are unstable in the presence of high relative amounts of sucralose. In another embodiment, the weight/weight ratio of API, such as SOL to sucralose is greater than about 3, greater than about 4, greater than about 5, greater than about 6, greater than about 7, greater than about 8, greater than about 9, or greater than about 10. Illustratively, the POS and suspension formulations described herein include one of more souring agents. It has unexpectedly been discovered that compounds described herein, such as SOL, are unstable in the presence of high relative amounts of citric acid. In another embodiment, the weight/weight ratio of API, such as SOL to citric acid is greater than about 50, greater than about 60, greater than about 70, greater than about 80, or greater than about 90. In another embodiment, the POS and suspension formulations described herein are substantially free of, or free of citric acid.

solubility ([1]; pH 5.7, aqueous buffer): 68000 µg/mL (≈ 80500 µM)
solubility ([1]; pH 6.2, aqueous buffer): 860 µg/mL (≈ 1020 µM)
solubility ([1]; pH 7.5, aqueous buffer): 70 µg/mL (≈ 82.8 µM)
stability in the presence of citric acid ([2]; high relative amounts of citric acid): unstable
stability in the presence of sucralose ([2]; high relative amounts of sucralose): unstable
Structure (SMILES): CC[C@H]1OC(=O)[C@@](C)(F)C(=O)[C@H](C)[C@@H](O[C@@H]2O[C@H](C)C[C@H](N(C)C)[C@H]2O)[C@](C)(OC)C[C@@H](C)C(=O)[C@H](C)[C@H]2N(CCCCn3cc(-c4cccc(N)c4)nn3)C(=O)O[C@]12C [SOL, solithromycin]
